# Source: PMC12081905, “Ortho-functionalization of a ^211At-labeled aryl compound provides stabilization of the C-At bond against oxidative dehalogenation” (Scientific Reports, 2025)
# Assays:
# [1] = test system: rat liver microsomes (CYP450); experiment: Stability assay in rat liver microsomal medium with NADPH regeneration system; type: in vitro ADME; conditions: 37 °C, radio-HPLC
# Source text: (§1) Since oxidation by CYP450 enzymes is a plausible cause of oxidative deastatination within targeted cells or in the liver, we also assessed the stability of our compounds against liver microsomes. Liver microsomes contain CYP450, a family of oxidase enzymes that were used in our assay, adapted from Schmitt et al.[14] and using a nicotinamide adenine dinucleotide phosphate (NADPH) redox regeneration system to regenerate the redox properties of CYP450. For comparison, we performed the stability assay in rat and human liver microsomes (Fig. 7).
# (§2) ^211At was produced at the Arronax cyclotron facility using the ^209Bi(α,2n) ^211At reaction and recovered from the irradiated target in chloroform using a dry distillation protocol adapted from the procedure previously reported by Lindegren et al.[26] […] To quantify free astatine that remains trapped in the HPLC system during the elution, 50 µL of an aqueous sodium sulfite solution (10 mg mL^−1) were injected after each analysis to release free astatine from the HPLC system with the flow rate set at 1.20 mL/min with the following gradient: t = 0: 90% A, 10% B; t = 2–6 min: 100% B with A = H2O with 0.05% TFA and B = CH3CN with 0.05% TFA. The non-radioactive iodinated compounds were analyzed using this HPLC system and their retention times were used as references for identification of their astatinated analogues. […]
# [2] = test system: human liver microsomes (CYP450); experiment: Stability assay in human liver microsomal medium with NADPH regeneration system; type: in vitro ADME; conditions: 37 °C, radio-HPLC
# Source text: as §1, §2
# [3] = Stability assay in oxidizing/acidic medium (chemical oxidation assay, KMnO4); type: physicochemical; conditions: radio-HPLC
# Description: Stability of ^211At-labeled compounds in oxidizing media. […] Adapted from Teze et al.[10], it consists in an incubation of the ^211At-labeled product in 50 mM acetate buffer (pH = 4.7) containing a 1 mM potassium permanganate solution (Fig. 5).
# as §2, with “al.[26] Before use, the ^211At solution was reduced to dryness under a gentle stream of nitrogen.” for “al.[26]”
# Each peak is then integrated, providing each peak area (noted A(A), A(B) etc…) to quantify the species present. […]
# [4] = set-up: method as in PMID 28566709; conditions: DFT, resulting oxidized compounds; cited from earlier work
compound,measurement,setting,value
"CCNC(=O)c1cccc([211At])c1 [[^211At]AEB, 3-[^211At]astato-N-ethylbenzamide]",starting compound / metabolites after 20 h incubation in rat microsomes,[1],practically no presence of the starting compound
same,starting compound / metabolites after 20 h incubation in human microsomes,[2],practically no presence of the starting compound
same,fate of the starting 211At-compound in oxidizing medium,"[3]; 50 mM acetate buffer pH 4.7, 1 mM KMnO4, up to 20 h",almost complete degradation
"CCOC(=O)c1cccc([211At])c1 [compound 1, ethyl 3-[^211At]astatobenzoate]",bond dissociation energy of the carbon-halogen bond,[4],28.2 kcal mol^−1
"OCc1ccccc1[211At] [compound 2, (2-[^211At]astatophenyl)methanol]",free astatine (release of astatine) after 20 h incubation in oxidizing medium,"[3]; 50 mM acetate buffer pH 4.7, 1 mM KMnO4, room temperature, 20 h, n = 3",12%
